Our source for the AUC(0-t) and Cmax values is ChEMBL document CHEMBL4425144, “Discovery and Structural Optimization of N5-Substituted 6,7-Dioxo-6,7-dihydropteridines as Potent and Selective Epidermal Growth Factor Receptor (EGFR) Inhibitors against L858R/T790M Resistance Mutation” (J Med Chem, 2016).

As a reminder, the AUC(0-t) is the area under the concentration-time curve up to a stated or last time point. In general, Cmax refers to the highest concentration seen after dosing.

Data set [1] in a line: AUC (0 to t) in ICR mouse at 1 mg/kg, iv by LC-MS/MS method. The class given is ADME, organism-based. The following applies: in vivo.
Data set [2] is described as follows: Cmax in ICR mouse at 1 mg/kg, iv by LC-MS/MS method. Further details: dose 1 mg/kg, route intravenous. The following applies: in vivo. The class given is ADME, organism-based.

Molecules are shown by their SMILES.

In data set [1], `C=CC(=O)Nc1cccc(-n2c(=O)c(=O)n(C(C)C)c3cnc(Nc4ccc(N5CCN(C)CC5)cc4OC)nc32)c1` had an AUC(0-t) of 140 ng·h/mL. In data set [2], the peak level (Cmax) was 258 ng/mL.
